Test results from patent US5502035A, “N-terminus modified analogs of LHRH” (Tap Holdings Inc., priority 1994, dated 1996).
Starred links: 1 amine or outer side, 2 acyl side, 3 side chain; linkers in the order of their positions; H or OH if unused. Non-standard residues stand in square brackets, D forms with d. Residues, ends and D or L forms follow the SMILES beside them. Groups on a side chain read outwards from the residue. *: point of attachment. Shikimoyl = O=C(C1=C[C@@H](O)[C@@H](O)[C@H](O)C1)*; dPhe(4-Cl) = N[C@H](Cc1ccc(Cl)cc1)C(=O)O; d2Nal = N[C@H](Cc1ccc2ccccc2c1)C(=O)O; Lys(iPr) = CC(C)NCCCC[C@H](N)C(=O)O; NMeY = CN[C@@H](Cc1ccc(O)cc1)C(=O)O; dCit = NC(=O)NCCC[C@@H](N)C(=O)O; hArg = N=C(N)NCCCC[C@H](N)C(=O)O; d3Pal = N[C@H](Cc1cccnc1)C(=O)O; Suc = O=C(CCC(=O)[*:2])[*:1]; Nicotinoyl = O=C(c1cccnc1)*; X2 = O=C1CC[C@@H](C(=O)*)O1; X8 = O=C1CC[C@H](C(=O)*)O1; X1 = O=C([C@@H]1CCCO1)*; GABA = NCCCC(=O)O; βAla = NCCC(=O)O

Target: T1, LHRH (Rattus norvegicus, UniProt P30969)
T1 construct: endogenous in cells; host or cells: rat pituitary cells (own knowledge of the cited Haviv 1989 method)
T1 sequence (P30969 1-327): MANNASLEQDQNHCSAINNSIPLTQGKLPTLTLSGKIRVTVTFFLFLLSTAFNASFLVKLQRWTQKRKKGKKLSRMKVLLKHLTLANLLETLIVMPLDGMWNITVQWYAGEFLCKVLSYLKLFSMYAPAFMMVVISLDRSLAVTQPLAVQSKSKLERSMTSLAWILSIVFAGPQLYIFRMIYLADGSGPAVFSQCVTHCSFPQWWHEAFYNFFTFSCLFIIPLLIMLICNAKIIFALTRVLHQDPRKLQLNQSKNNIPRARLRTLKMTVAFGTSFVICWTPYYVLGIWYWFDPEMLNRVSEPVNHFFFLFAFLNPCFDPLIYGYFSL
Test: in vitro test for LHRH antagonist potency (pA2)
Assay type: cell-based
Details: negative logarithm of the antagonist concentration required to shift the response curve produced by the agonist leuprolide to two-fold higher concentration
In short: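 Rat LHRH receptor in vitro functional test; pA2 = negative log of the antagonist concentration shifting the leuprolide agonist response curve to two-fold higher concentration.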

Compound | Kb
CC(C)C[C@H](NC(=O)[C@@H](CCCCNC(=O)CNC(=O)CNC(=O)c1cccnc1)NC(=O)[C@H](Cc1ccc(O)cc1)N(C)C(=O)[C@H](CO)NC(=O)[C@@H](Cc1cccnc1)NC(=O)[C@@H](Cc1ccc(Cl)cc1)NC(=O)[C@@H](Cc1ccc2ccccc2c1)NC(=O)CNC(=O)C1=C[C@@H](O)[C@@H](O)[C@H](O)C1)C(=O)N[C@@H](CCCNC(=N)N)C(=O)N1CCC[C@H]1C(=O)N[C@H](C)C(N)=O [Example 20, N-Shikimyl-Gly-D2Nal-D4ClPhe-D3Pal-Ser-NMeTyr-DLys(GlyGlyNic)-Leu-Arg-Pro-DAlaNH2] (Shikimoyl-G[d2Nal][dPhe(4-Cl)][d3Pal]S[NMeY][dK]([Gly-Gly-Nicotinoyl])LRP[dA]-NH2) | 0.0263 nM
CC(C)C[C@H](NC(=O)[C@@H](CCCCNC(=O)c1cccnc1)NC(=O)[C@H](Cc1ccc(O)cc1)N(C)C(=O)[C@H](CO)NC(=O)[C@@H](Cc1cccnc1)NC(=O)[C@@H](Cc1ccc(Cl)cc1)NC(=O)[C@@H](Cc1ccc2ccccc2c1)NC(=O)CCCNC(=O)[C@@H]1CCCO1)C(=O)N[C@@H](CCCCNC(C)C)C(=O)N1CCC[C@H]1C(=O)N[C@H](C)C(N)=O [Example 97, N (S)-2-Tetrahydrofuroyl-Gaba-D2Nal-D4ClPhe-D3Pal-Ser-NMeTyr-DLys(Nic)-Leu-Lys(Isp)-Pro-DAlaNH2] ({X1-GABA}-[d2Nal][dPhe(4-Cl)][d3Pal]S[NMeY][dK](Nicotinoyl)L[Lys(iPr)]P[dA]-NH2) | 0.0339 nM
CC(C)C[C@H](NC(=O)[C@@H](CCCCNC(=O)c1cccnc1)NC(=O)[C@H](CCCCNC(=O)c1cccnc1)NC(=O)[C@H](CO)NC(=O)[C@@H](Cc1cccnc1)NC(=O)[C@@H](Cc1ccc(Cl)cc1)NC(=O)[C@@H](Cc1ccc2ccccc2c1)NC(=O)c1cccnc1)C(=O)N[C@@H](CCCCNC(C)C)C(=O)N1CCC[C@H]1C(=O)N[C@H](C)C(N)=O [Example 74, N-Nicotinyl-D2Nal-D4ClPhe-D3Pal-Ser-Lys(Nic)-DLys(Nic)-Leu-Lys(Isp)-Pro-DAlaNH2] (Nicotinoyl-[d2Nal][dPhe(4-Cl)][d3Pal]SK(Nicotinoyl)[dK](Nicotinoyl)L[Lys(iPr)]P[dA]-NH2) | 0.0562 nM
CC(C)C[C@H](NC(=O)[C@@H](CCCCNC(=O)c1cccnc1)NC(=O)[C@H](Cc1ccc(O)cc1)N(C)C(=O)[C@H](CO)NC(=O)[C@@H](Cc1cccnc1)NC(=O)[C@@H](Cc1ccc(Cl)cc1)NC(=O)[C@@H](Cc1ccc2ccccc2c1)NC(=O)[C@@H]1CCCO1)C(=O)N[C@@H](CCCCNC(C)C)C(=O)N1CCC[C@H]1C(=O)N[C@H](C)C(N)=O [Example 67, N-(S)-Tetrahydrofur-2-oyl-D2Nal-D4ClPhe-D3Pal-Ser-NMeTyr-DLys(Nic)-Leu-Lys(Isp)-Pro-DAlaNH2] (X1-[d2Nal][dPhe(4-Cl)][d3Pal]S[NMeY][dK](Nicotinoyl)L[Lys(iPr)]P[dA]-NH2) | 0.0251 nM
CC(C)C[C@H](NC(=O)[C@@H](CCCNC(N)=O)NC(=O)[C@H](Cc1ccc(O)cc1)N(C)C(=O)[C@H](CO)NC(=O)[C@@H](Cc1cccnc1)NC(=O)[C@@H](Cc1ccc(Cl)cc1)NC(=O)[C@@H](Cc1ccc2ccccc2c1)NC(=O)CNC(=O)CCC(=O)O)C(=O)N[C@@H](CCCNC(=N)N)C(=O)N1CCC[C@H]1C(=O)N[C@H](C)C(N)=O [Example 13d, N-Succinyl-Gly-D2Nal-D4ClPhe-D3Pal-Ser-NMeTyr-DCit-Leu-Arg-Pro-DAlaNH2] (Suc-G[d2Nal][dPhe(4-Cl)][d3Pal]S[NMeY][dCit]LRP[dA]-NH2) | 0.0407 nM
CC(C)C[C@H](NC(=O)[C@@H](CCCCNC(=O)c1cccnc1)NC(=O)[C@H](Cc1ccc(O)cc1)N(C)C(=O)[C@H](CO)NC(=O)[C@@H](Cc1cccnc1)NC(=O)[C@@H](Cc1ccc(Cl)cc1)NC(=O)[C@@H](Cc1ccc2ccccc2c1)NC(=O)CNC(=O)[C@@H]1CCCO1)C(=O)N[C@@H](CCCCNC(C)C)C(=O)N1CCC[C@H]1C(=O)N(C)CC(N)=O [Example 39, N-(S)-Tetrahydrofur-2-oyl-Gly-D2Nal-D4ClPhe-D3Pal-Ser-NMeTyr-DLys(Nicotinyl)-Leu-Lys(Isp)-Pro-SarNH2] | 0.0155 nM
CC(C)C[C@H](NC(=O)[C@@H](CCCCNC(=O)c1cccnc1)NC(=O)[C@H](Cc1ccc(O)cc1)N(C)C(=O)[C@H](CO)NC(=O)[C@@H](Cc1cccnc1)NC(=O)[C@@H](Cc1ccc(Cl)cc1)NC(=O)[C@@H](Cc1ccc2ccccc2c1)NC(=O)C1=C[C@@H](O)[C@@H](O)[C@H](O)C1)C(=O)N[C@@H](CCCCNC(C)C)C(=O)N1CCC[C@H]1C(=O)N[C@H](C)C(N)=O [Example 71, N-Shikimyl-D2Nal-D4ClPhe-D3Pal-Ser-NMeTyr-DLys(Nic)-Leu-Lys(Isp)-Pro-DAlaNH2] (Shikimoyl-[d2Nal][dPhe(4-Cl)][d3Pal]S[NMeY][dK](Nicotinoyl)L[Lys(iPr)]P[dA]-NH2) | 0.00708 nM
CC(C)C[C@H](NC(=O)[C@@H](CCCNC(N)=O)NC(=O)[C@H](Cc1ccc(O)cc1)N(C)C(=O)[C@H](CO)NC(=O)[C@@H](Cc1cccnc1)NC(=O)[C@@H](Cc1ccc(Cl)cc1)NC(=O)[C@@H](Cc1ccc2ccccc2c1)NC(=O)[C@@H]1CCC(=O)O1)C(=O)N[C@@H](CCCNC(=N)N)C(=O)N1CCC[C@H]1C(=O)N[C@H](C)C(N)=O [Example 78b, N-(S)-5-Oxo-tetrahydrofur-2-oyl-D2Nal-D4ClPhe-D3Pal-Ser-NMeTyr-DCit-Leu-Arg-Pro-DAlaNH2] (X2-[d2Nal][dPhe(4-Cl)][d3Pal]S[NMeY][dCit]LRP[dA]-NH2) | 0.00832 nM
CC(C)C[C@H](NC(=O)[C@@H](CCCNC(N)=O)NC(=O)[C@H](Cc1ccc(O)cc1)N(C)C(=O)[C@H](CO)NC(=O)[C@@H](Cc1cccnc1)NC(=O)[C@@H](Cc1ccc(Cl)cc1)NC(=O)[C@@H](Cc1ccc2ccccc2c1)NC(=O)[C@H]1CCC(=O)O1)C(=O)N[C@@H](CCCNC(=N)N)C(=O)N1CCC[C@H]1C(=O)N[C@H](C)C(N)=O [Example 78a, N-(R)-5-Oxo-tetrahydrofur-2-oyl-D2Nal-D4ClPhe-D3Pal-Ser-NMeTyr-DCit-Leu-Arg-Pro-DAlaNH2] (X8-[d2Nal][dPhe(4-Cl)][d3Pal]S[NMeY][dCit]LRP[dA]-NH2) | 0.0105 nM
CC(C)C[C@H](NC(=O)[C@@H](CCCCNC(=O)c1cccnc1)NC(=O)[C@H](Cc1ccc(O)cc1)N(C)C(=O)[C@H](CO)NC(=O)[C@@H](Cc1cccnc1)NC(=O)[C@@H](Cc1ccc(Cl)cc1)NC(=O)[C@@H](Cc1ccc2ccccc2c1)NC(=O)CNC(=O)C1CCCO1)C(=O)N[C@@H](CCCCNC(C)C)C(=O)N1CCC[C@H]1C(=O)N[C@H](C)C(N)=O (mixture of isomers) [Example 3, N-(R,S)-Tetrahydrofur-2-oyl-Gly-D2Nal-D4ClPhe-D3Pal-Ser-NMeTyr-DLys(Nicotinyl) -Leu-Lys(N-epsilon-Isopropyl)-Pro-DAlaNH2] | 0.0158 nM
CC(C)C[C@H](NC(=O)[C@@H](CCCCNC(=O)c1cccnc1)NC(=O)[C@H](Cc1ccc(O)cc1)N(C)C(=O)[C@H](CO)NC(=O)[C@@H](Cc1cccnc1)NC(=O)[C@@H](Cc1ccc(Cl)cc1)NC(=O)[C@@H](Cc1ccc2ccccc2c1)NC(=O)CNC(=O)c1cccnc1)C(=O)N[C@@H](CCCNC(=N)N)C(=O)N1CCC[C@H]1C(=O)N[C@H](C)C(N)=O [Example 27a, N-Nicotinyl-Gly-D2Nal-D4ClPhe-D3Pal-Ser-NMeTyr-DLys(Nic)-Leu-Arg-Pro-DAlaNH2] (Nicotinoyl-G[d2Nal][dPhe(4-Cl)][d3Pal]S[NMeY][dK](Nicotinoyl)LRP[dA]-NH2) | 0.00776 nM
CC(C)C[C@H](NC(=O)[C@@H](CCCCNC(=O)c1cccnc1)NC(=O)[C@H](Cc1ccc(O)cc1)N(C)C(=O)[C@H](CO)NC(=O)[C@@H](Cc1cccnc1)NC(=O)[C@@H](Cc1ccc(Cl)cc1)NC(=O)[C@@H](Cc1ccc2ccccc2c1)NC(=O)CCNC(=O)C1=C[C@@H](O)[C@@H](O)[C@H](O)C1)C(=O)N[C@@H](CCCCNC(C)C)C(=O)N1CCC[C@H]1C(=O)N[C@H](C)C(N)=O [Example 6b, N-Shikimyl-3Aminopropionyl-D2Nal-D4ClPhe-D3Pal-Ser-NMeTyr-DLys(N-epsilon-Nicotinyl) -Leu-Lys(N-epsilon-Isopropyl)-Pro-DAlaNH2] ({Shikimoyl-βAla}-[d2Nal][dPhe(4-Cl)][d3Pal]S[NMeY][dK](Nicotinoyl)L[Lys(iPr)]P[dA]-NH2) | 0.0158 nM
CC(C)C[C@H](NC(=O)[C@@H](CCCCNC(=O)C1=C[C@@H](O)[C@@H](O)[C@H](O)C1)NC(=O)[C@H](Cc1ccc(O)cc1)N(C)C(=O)[C@H](CO)NC(=O)[C@@H](Cc1cccnc1)NC(=O)[C@@H](Cc1ccc(Cl)cc1)NC(=O)[C@@H](Cc1ccc2ccccc2c1)NC(=O)C1=C[C@@H](O)[C@@H](O)[C@H](O)C1)C(=O)N[C@@H](CCCCNC(=N)N)C(=O)N1CCC[C@H]1C(=O)N[C@H](C)C(N)=O [Example 79, N-Shikimyl-D2Nal-D4ClPhe-D3Pal-Ser-NMeTyr-DLys(Shik)-Leu-Harg-Pro-DAlaNH2] (Shikimoyl-[d2Nal][dPhe(4-Cl)][d3Pal]S[NMeY][dK](Shikimoyl)L[hArg]P[dA]-NH2) | 0.0195 nM
CC(C)C[C@H](NC(=O)[C@@H](CCCCNC(=O)c1cccnc1)NC(=O)[C@H](CCCCNC(=O)c1cccnc1)NC(=O)[C@H](CO)NC(=O)[C@@H](Cc1cccnc1)NC(=O)[C@@H](Cc1ccc(Cl)cc1)NC(=O)[C@@H](Cc1ccc2ccccc2c1)NC(=O)C1=C[C@@H](O)[C@@H](O)[C@H](O)C1)C(=O)N[C@@H](CCCCNC(C)C)C(=O)N1CCC[C@H]1C(=O)N[C@H](C)C(N)=O [Example 73, N-Shikimyl-D2Nal-D4ClPhe-D3Pal-Ser-Lys(Nic)-DLys(Nic)-Leu-Lys(Isp)-Pro-DAlaNH2] (Shikimoyl-[d2Nal][dPhe(4-Cl)][d3Pal]SK(Nicotinoyl)[dK](Nicotinoyl)L[Lys(iPr)]P[dA]-NH2) | 0.0447 nM
